# pIC50, pKi: −log10 of the molar value.
# What was measured:
# [1] = DRUGMATRIX: Tumor Necrosis Factor (TNF), Non-Selective radioligand binding (ligand: [125I] TNF-alpha); assay type: cell membranes, Membrane; settings: u-937; Not Active = under 50% inhibition at 10 µM
# [2] = DRUGMATRIX: Glutamate, NMDA, Phencyclidine radioligand binding (ligand: [3H] TCP); assay type: cell membranes, Rattus norvegicus, Wistar, Cerebral cortex, Membrane; settings: Not Active = under 50% inhibition at 10 µM
# [3] = molecular target: T1, Cysteinyl leukotriene receptor 1 (Homo sapiens, UniProt Q9Y271); assay type: cell membranes, CHO-K1, Membrane; settings: for IC50: cho-k1; on all read-outs here: in other assays of this panel Not Active means under 50% inhibition at 10 µM
# T1 sequence (Q9Y271 whole entry): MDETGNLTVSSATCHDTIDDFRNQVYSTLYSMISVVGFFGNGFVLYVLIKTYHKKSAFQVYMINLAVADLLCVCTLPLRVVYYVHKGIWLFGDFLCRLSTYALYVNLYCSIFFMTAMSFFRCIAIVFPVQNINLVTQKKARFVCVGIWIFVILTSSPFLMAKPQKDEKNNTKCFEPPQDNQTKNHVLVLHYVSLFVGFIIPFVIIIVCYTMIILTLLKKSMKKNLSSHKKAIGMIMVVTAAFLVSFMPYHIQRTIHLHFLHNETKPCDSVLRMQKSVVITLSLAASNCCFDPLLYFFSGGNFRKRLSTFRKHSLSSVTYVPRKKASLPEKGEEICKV
# [4] = molecular target: Platelet-activating factor receptor (Homo sapiens, UniProt P25105); assay type: tissue-based; further: in other assays of this panel Not Active means under 50% inhibition at 10 µM
# Sequence of Platelet-activating factor receptor (P25105 whole entry): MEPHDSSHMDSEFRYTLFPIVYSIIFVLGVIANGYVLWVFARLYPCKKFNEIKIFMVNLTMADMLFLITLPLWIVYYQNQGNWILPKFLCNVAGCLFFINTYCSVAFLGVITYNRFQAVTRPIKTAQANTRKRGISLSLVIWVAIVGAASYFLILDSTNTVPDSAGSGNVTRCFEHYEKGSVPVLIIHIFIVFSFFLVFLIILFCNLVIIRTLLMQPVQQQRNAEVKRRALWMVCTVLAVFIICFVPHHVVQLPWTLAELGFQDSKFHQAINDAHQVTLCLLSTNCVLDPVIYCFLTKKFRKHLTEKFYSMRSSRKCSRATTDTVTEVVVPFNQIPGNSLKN
# Progesterone receptor = molecular target: T2, Progesterone receptor (Bos taurus, UniProt Q690N0); assay: DRUGMATRIX: Progesterone radioligand binding (ligand: [3H] R-5020); assay type: tissue-based, Uterus; settings: Not Active = under 50% inhibition at 10 µM; for pIC50: read-out: IC50; for pKi: read-out: Ki
# T2 sequence (Q690N0 whole entry): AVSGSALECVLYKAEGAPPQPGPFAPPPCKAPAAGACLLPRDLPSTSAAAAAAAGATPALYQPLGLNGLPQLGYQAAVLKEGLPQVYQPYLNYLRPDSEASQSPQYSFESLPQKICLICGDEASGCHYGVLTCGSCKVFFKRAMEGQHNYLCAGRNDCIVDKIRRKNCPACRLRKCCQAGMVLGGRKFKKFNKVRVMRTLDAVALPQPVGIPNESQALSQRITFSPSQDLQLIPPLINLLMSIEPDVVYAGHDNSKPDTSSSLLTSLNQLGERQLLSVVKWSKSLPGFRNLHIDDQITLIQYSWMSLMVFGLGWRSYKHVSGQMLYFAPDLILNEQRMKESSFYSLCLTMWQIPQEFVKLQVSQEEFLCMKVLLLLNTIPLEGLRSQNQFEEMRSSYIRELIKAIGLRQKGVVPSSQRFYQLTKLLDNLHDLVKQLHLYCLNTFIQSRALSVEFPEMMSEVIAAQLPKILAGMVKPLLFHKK
# Caspase-1 = molecular target: T3, Caspase-1 (Homo sapiens, UniProt P29466); design: species or system Escherichia coli;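 further: Caspase-1 enzyme inhibition assay with a peptide substrate; in other assays of this panel Not Active means under 50% inhibition at 10 µM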
# T3 sequence (P29466 whole entry): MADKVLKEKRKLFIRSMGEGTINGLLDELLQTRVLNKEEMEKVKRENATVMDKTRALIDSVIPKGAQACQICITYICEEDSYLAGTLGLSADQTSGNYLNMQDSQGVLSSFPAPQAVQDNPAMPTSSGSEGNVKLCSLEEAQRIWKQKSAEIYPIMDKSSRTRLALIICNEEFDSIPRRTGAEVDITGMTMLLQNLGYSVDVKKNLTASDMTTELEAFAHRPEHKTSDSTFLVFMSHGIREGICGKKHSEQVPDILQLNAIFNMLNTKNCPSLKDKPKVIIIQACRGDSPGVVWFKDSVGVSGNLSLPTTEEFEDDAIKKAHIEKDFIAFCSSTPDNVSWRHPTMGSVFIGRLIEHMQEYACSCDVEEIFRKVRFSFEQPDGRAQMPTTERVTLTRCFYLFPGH
# Adenosine receptor A1 = molecular target: T4, Adenosine receptor A1 (Homo sapiens, UniProt P30542); assay type: cell membranes, CHO, Membrane; settings: for IC50: cho;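 on all read-outs here: radioligand binding assay at the adenosine A1 receptor, with DPCPX serving as the labelled ligand; in other assays of this panel Not Active means under 50% inhibition at 10 µM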
# T4 sequence (P30542 whole entry): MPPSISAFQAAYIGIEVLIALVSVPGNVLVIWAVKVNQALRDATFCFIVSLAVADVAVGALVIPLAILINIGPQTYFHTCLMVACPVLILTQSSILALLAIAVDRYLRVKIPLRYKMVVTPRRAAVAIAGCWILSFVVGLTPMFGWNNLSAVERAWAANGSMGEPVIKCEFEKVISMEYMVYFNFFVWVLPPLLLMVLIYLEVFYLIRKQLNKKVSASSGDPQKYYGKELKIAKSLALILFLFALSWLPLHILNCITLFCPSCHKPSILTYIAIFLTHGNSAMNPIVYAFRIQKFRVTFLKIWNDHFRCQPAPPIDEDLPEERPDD
Structure (SMILES),IC50 [1],Ki [1],IC50 [2],Ki [2],pIC50 ([3]; read-out: IC50),pKi ([3]; read-out: Ki),IC50 [4],pIC50 (Progesterone receptor),pKi (Progesterone receptor),IC50 (Caspase-1),pIC50 (Adenosine receptor A1; read-out: IC50),pKi (Adenosine receptor A1; read-out: Ki),IC50 [3],IC50 (Progesterone receptor),IC50 (Adenosine receptor A1)
CN(CCOc1ccc(C[C@H](Nc2ccccc2C(=O)c2ccccc2)C(=O)O)cc1)c1ccccn1,Not Active,Not Active,Not Active,Not Active,4.96,5.26,Not Active,4.51,5.40,Not Active,4.82,5.06,,,
Nc1nc(F)nc2c1ncn2[C@@H]1O[C@H](CO)[C@@H](O)[C@@H]1O [FLUDARABINE],Not Active,Not Active,Not Active,Not Active,,,Not Active,,,Not Active,,,Not Active,Not Active,Not Active
OC[C@H]1OC2C3[C@@H](CO)OC(O[C@H]4[C@H](O)[C@@H](O)[C@@H](O[C@H]5[C@H](O)[C@@H](O)[C@@H](O[C@H]6[C@H](O)[C@@H](O)[C@@H](O[C@H]7[C@H](O)[C@@H](O)[C@@H](O[C@H]8[C@H](O)[C@@H](O)[C@@H](O[C@H]9[C@H](O)[C@@H](O)C(OC1[C@H](O)[C@H]2O)O[C@@H]9CO)O[C@@H]8CO)O[C@@H]7CO)O[C@@H]6CO)O[C@@H]5CO)O[C@@H]4CO)[C@H](O)[C@H]3O,Not Active,Not Active,Not Active,Not Active,,,Not Active,,,Not Active,,,Not Active,Not Active,Not Active
C=CCO [ALLYL ALCOHOL],Not Active,Not Active,Not Active,Not Active,,,Not Active,,,Not Active,,,Not Active,Not Active,Not Active
C[C@]12CC[C@@H](O)C[C@@H]1CC[C@@H]1[C@@H]2CC[C@]2(C)C(=O)CC[C@@H]12 [ANDROSTERONE],Not Active,Not Active,Not Active,Not Active,,,Not Active,,,Not Active,,,Not Active,Not Active,Not Active
COC(=O)Nc1nc2ccc(Sc3ccccc3)cc2[nH]1 [FENBENDAZOLE],Not Active,Not Active,Not Active,Not Active,,,Not Active,,,Not Active,,,Not Active,Not Active,Not Active
C#C[C@]1(O)CC[C@H]2[C@@H]3CCC4=CC(=O)CC[C@@H]4[C@H]3CC[C@@]21C [NORETHINDRONE],Not Active,Not Active,Not Active,Not Active,,,Not Active,8.03,8.91,Not Active,,,Not Active,,Not Active
"O=C(Nc1ccc(Cl)c(Cl)c1)c1cc(Cl)cc(Cl)c1O [3,3',4',5-TETRACHLOROSALICYLANILIDE]",Not Active,Not Active,Not Active,Not Active,,,Not Active,,,Not Active,,,Not Active,Not Active,Not Active
CCN(CCO)CCCC(C)Nc1ccnc2cc(Cl)ccc12 (stereo not given) [HYDROXYCHLOROQUINE],Not Active,Not Active,Not Active,Not Active,,,Not Active,,,Not Active,,,Not Active,Not Active,Not Active
CC1(COc2ccc(CC3SC(=O)NC3=O)cc2)CCCCC1 (stereo not given) [CIGLITAZONE],Not Active,Not Active,Not Active,Not Active,,,Not Active,4.54,5.42,Not Active,,,Not Active,,Not Active

# — ChEMBL document CHEMBL1909046, “DrugMatrix in vitro pharmacology data”
